Test results published in patent publication US20090247646A1, “USE OF RESVERATROL AND DERIVATIVES THEREOF FOR PROMOTING THE WELLNESS STATE IN MAMMALS” (priority 2006, published 2009).

Tested on: gene expression in heart tissue
Assay: Genome-wide gene expression in heart tissue of old mice fed a resveratrol-supplemented diet (Affymetrix Mouse Genome 430 2.0 array)
Format: in vivo
[1] = ADP-ribosyltransferase 1, Genebank ID NM_009710
[2] = Bcl2-associated athanogene 3, Genebank ID NM_013863
[3] = DnaJ (Hsp40) homolog, subfamily A, member 3, Genebank ID AK004575
[4] = DnaJ (Hsp40) homolog, subfamily A, member 4, Genebank ID NM_021422
[5] = DnaJ (Hsp40) homolog, subfamily B, member 5, Genebank ID AI664344
[6] = DnaJ (Hsp40) homolog, subfamily B, member 10, Genebank ID NM_020266
[7] = F-box only protein 25, Genebank ID NM_025785
[8] = F-box only protein 32, Genebank ID AF441120
[9] = F-box protein 30, Genebank ID AK006369
[10] = FK506 binding protein 7, Genebank ID NM_010222
[11] = G protein-coupled receptor kinase 5, Genebank ID BC019379
[12] = Hbs1-like (S. cerevisiae), Genebank ID AK012856
[13] = Mus musculus similar to heart alpha-kinase (LOC381181), mRNA, Genebank ID AY044451
[14] = Mus musculus transcribed sequences, Genebank ID AK004331
[15] = No description found, Genebank ID BG976607
[16] = O-linked N-acetylglucosamine (GlcNAc) transferase (UDP-N-acetylglucosamine:polypeptide-N-acetylglucosaminyl transferase), Genebank ID BG065325
[17] = PTEN induced putative kinase 1, Genebank ID AF316872
[18] = Stam binding protein, Genebank ID AK019907
[19] = acid phosphatase 1, soluble, Genebank ID AW554436

## Oc1ccc(/C=C/c2cc(O)cc(O)c2)cc1 [resveratrol, 3,4′,5-Trihydroxy-trans-stilbene]
1448825_at pyruvate dehydrogenase kinase, isoenzyme 2
  Effect of resveratrol on changeing gene expression from old to young profile: >100%
1448938_at replication protein A3
  Effect of resveratrol on changeing gene expression from old to young profile: >100%
1449116_a_at deoxythymidylate kinase
  Effect of resveratrol on changeing gene expression from old to young profile: >100%
1449334_at tissue inhibitor of metalloproteinase 3
  Effect of resveratrol on changeing gene expression from old to young profile: >100%
1450008_a_at catenin beta
  Effect of resveratrol on changeing gene expression from old to young profile: >100%
1450048_a_at vacuolar protein sorting 33B (yeast) [BLAST]
  Effect of resveratrol on changeing gene expression from old to young profile: >100%
1450634_at ATPase, H+ transporting, V1 subunit A, isoform 1
  Effect of resveratrol on changeing gene expression from old to young profile: >100%
1450720_at acid phosphatase 1, soluble
  Effect of resveratrol on changeing gene expression from old to young profile: >100%
1450899_at neural precursor cell expressed, developmentally down-regulated gene 1
  Effect of resveratrol on changeing gene expression from old to young profile: >100%
1451012_a_at cold shock domain protein A
  Effect of resveratrol on changeing gene expression from old to young profile: >100%
1451148_at PTEN induced putative kinase 1
  Effect of resveratrol on changeing gene expression from old to young profile: >100%
1451249_at DNA segment, Chr 8, ERATO Doi 812, expressed
  Effect of resveratrol on changeing gene expression from old to young profile: >100%
1452066_a_at Nedd4 family interacting protein 2
  Effect of resveratrol on changeing gene expression from old to young profile: >100%
1452767_at ribosome binding protein 1
  Effect of resveratrol on changeing gene expression from old to young profile: >100%
1452843_at interleukin 6 signal transducer
  Effect of resveratrol on changeing gene expression from old to young profile: >100%
1453124_at transportin 3
  Effect of resveratrol on changeing gene expression from old to young profile: >100%
1453129_a_at regulator of G-protein signaling 12
  Effect of resveratrol on changeing gene expression from old to young profile: >100%
1454811_a_at tumor differentially expressed 2
  Effect of resveratrol on changeing gene expression from old to young profile: >100%
1454837_at ceroid-lipofuscinosis, neuronal 6
  Effect of resveratrol on changeing gene expression from old to young profile: >100%
1454848_at protein phosphatase 1, regulatory (inhibitor) subunit 12C [BLAST]
  Effect of resveratrol on changeing gene expression from old to young profile: >100%
1454974_at syntaxin 8
  Effect of resveratrol on changeing gene expression from old to young profile: >100%
1455182_at kinesin family member 1B
  Effect of resveratrol on changeing gene expression from old to young profile: >100%
1455506_at Mus musculus transcribed sequences
  Effect of resveratrol on changeing gene expression from old to young profile: >100%
1455702_at WD repeat domain 22
  Effect of resveratrol on changeing gene expression from old to young profile: >100%
1460028_at Mus musculus transcribed sequences
  Effect of resveratrol on changeing gene expression from old to young profile: >100%
1460174_at dexamethasone-induced transcript
  Effect of resveratrol on changeing gene expression from old to young profile: >100%
1460199_a_at platelet-activating factor acetylhydrolase, isoform 1b, beta1 subunit
  Effect of resveratrol on changeing gene expression from old to young profile: >100%
[1]
  % of res effect: 108.0103%
  Median RES: 87939
[2]
  % of res effect: 131.9726%
  Median RES: 67398
[3]
  % of res effect: 67.85%
  Median RES: 30553
[4]
  % of res effect: 61.28%
  Median RES: 20850
[5]
  % of res effect: 157.0689%
  Median RES: 17969
[6]
  % of res effect: 124.1691%
  Median RES: 29661
Effect 60-70%
  number of genes changed by resveratrol: 39
Effect 70-80%
  number of genes changed by resveratrol: 48
Effect 80-90%
  number of genes changed by resveratrol: 52
Effect 90-100%
  number of genes changed by resveratrol: 62
Effect <60%
  number of genes changed by resveratrol: 44
Effect >100% (expression in resveratrol-fed old mice as percentage of untreated young mice)
  number of genes changed by resveratrol: 340
[7]
  % of res effect: 80.27%
  Median RES: 11530
[8]
  % of res effect: 104.0857%
  Median RES: 35761
[9]
  % of res effect: 58.67%
  Median RES: 6641
[10]
  % of res effect: 196.8163%
  Median RES: 33928
[11]
  % of res effect: 80.42%
  Median RES: 37493
[12]
  % of res effect: 74.36%
  Median RES: 9115
[13]
  % of res effect: 190.8585%
  Median RES: 21847
[14]
  % of res effect: 105.9%
  Median RES: 38260
[15]
  % of res effect: 69.74%
  Median RES: 9370
[16]
  % of res effect: 125.3946%
  Median RES: 2989
[17]
  % of res effect: 147.4853%
  Median RES: 116921
[18]
  % of res effect: 230.3846%
  Median RES: 13590
Sum
  number of genes changed by resveratrol: 585
[19]
  % of res effect: 349.7466%
  Median RES: 34652
Among genes changed by resveratrol treatment, heart
  number of genes that resembled or exceeded the expression level of the young group: 342
